Measurements: patent US8389555B2, “Medicaments” (Motac Neuroscience Limited, priority 2007, dated 2013)

What was measured:
[1] = biological target: T1, human dopamine D3 receptors (Homo sapiens, UniProt P35462); assay: Dopamine D3 receptor binding assay ([3H]spiperone, CHO cell membranes); conditions: for Ki: human D3 receptors in CHO cells, 0.2 nM [3H]spiperone, mean ± SEM, read-out: Affinity Ki (D3); for Selectivity Ki(D2)/Ki(D3): ratio of Ki(D2) to Ki(D3)
T1 construct: expressed in transfected cells
T1 sequence (P35462 whole entry): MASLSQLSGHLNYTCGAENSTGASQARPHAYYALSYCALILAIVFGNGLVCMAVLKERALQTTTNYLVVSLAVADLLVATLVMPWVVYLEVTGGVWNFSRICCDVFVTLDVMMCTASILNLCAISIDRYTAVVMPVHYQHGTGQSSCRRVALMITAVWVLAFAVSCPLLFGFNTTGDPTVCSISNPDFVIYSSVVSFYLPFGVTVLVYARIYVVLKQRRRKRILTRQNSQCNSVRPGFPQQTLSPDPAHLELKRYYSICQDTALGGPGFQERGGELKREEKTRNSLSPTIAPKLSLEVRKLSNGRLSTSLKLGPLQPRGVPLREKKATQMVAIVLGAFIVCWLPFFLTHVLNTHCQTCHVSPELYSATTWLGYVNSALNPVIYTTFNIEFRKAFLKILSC
Method: (§1) Compounds synthesized in Examples A, B, C and D were assayed to test their affinity for dopamine D3 and D2 receptors.
(§2) METHODS: Dopamine D2S and D3 Receptor Binding Assays
Human D3 receptors stably expressed in CHO cells were used as described by Sokoloff et al. (Sokoloff, P. et al., Eur. J. Pharmacol. 1992, 225, 331-337). The cell line was cultured in Dulbecco's modified Eagle's medium supplemented with 2 mM glutamine, and 10% dialyzed fetal bovine serum, and were grown in an atmosphere of 5% CO2 at 37° C. (Gibco™).
(§3) Human D2S- and D3 receptors expressing cell lines were grown to confluence. The medium was removed, and the cells were washed with 10 ml PBS buffer (140 mM NaCl, 3 mM KCl, 1.5 mM KH2PO4, 8 mM Na2HPO4, pH 7.4) at 4° C. After removing the wash buffer, the cells were scraped from the flasks into 15 ml of ice-cold media, and centrifuged at 3,000 rpm for 10 minutes at 4° C. After centrifugation the medium was removed and the […] resuspended in ice-cold Tris-HCl buffer containing 5 mM MgCl2, pH 7.4 and disrupted with a Polytron and centrifuged at 20,000 rpm, for 30 minutes at 4° C. The pellet was resuspended by sonication in ice-cold Tris-HCl buffer (containing 5 mM MgCl2, pH 7.4), membrane aliquots were stored at −70° C. Determination of membrane protein was carried out by the method of Bradford (Bradford, M. M. Anal Biochem 1976, 72, 248-54).
(§4) Cell membranes containing human D2S and D3 receptors from CHO cells were thawed, rehomogenized with sonication at 4° C. in Tris-HCl, pH 7.4 containing 120 mM NaCl, 5 mM KCl, 2 mM CaCl2 and 1 mM MgCl2 (incubation buffer), and incubated with 0.2 nM [^3H]spiperone (106 Ci·mmol^−1, Amersham Biosciences, Freiburg, Germany), and drug diluted in incubation buffer. Non-specific binding was determined in the presence of 10 μM BP 897 ((Wermuth, C. G. et al. in Chem. Abstr. (Eur. Pat. 0779284, 1997)). Incubations were run at 25° C. for 120 min, and terminated by rapid filtration through PerkinElmer GF/B glass fibre filters (PerkinElmer Life Sciences, Rodgau, Germany) coated in 0.3% polyethylenimine (Sigma-Aldrich, Taufkirchen, Germany) using an Inotech cell harvester (Inotech AG, Dottikon, Switzerland). Unbound radioligand was removed with four washes of 1 ml of ice-cold 50 mM Tris-HCl buffer, pH 7.4, containing 120 mM NaCl. The filters were soaked in 9 ml Beta plate scint scintillator and counted using a PerkinElmer MicroBeta®Trilux scintillation counter (PerkinElmer Life Sciences). Competition binding data were analyzed by the software GraphPad Prism™ (2000, version 3.02, San Diego, Calif., USA), using non-linear least squares fit. For detailed screening the compounds have been tested at seven concentrations in triplicate carrying out three to five separate binding experiments for human dopamine D2S and for human dopamine D3 receptors and expressed as mean±standard error of the mean (SEM). Ki values were calculated from the IC50 values according to Cheng-Prusoff equation (Cheng, Y. C., Prusoff, W. H. Biochem. Pharmacol. 1973, 22, 3099-3108.).

[2] = biological target: T2, recombinant human D2(short) dopamine receptor (Homo sapiens, UniProt P14416); assay: Dopamine D2S receptor binding assay ([3H]spiperone, CHO cell membranes); conditions: human D2S receptors in CHO cells, 0.2 nM [3H]spiperone, mean ± SEM; read-out: Affinity Ki (D2)
T2 construct: expressed in transfected cells; host or cells: CHO-D2S cells (per Hayes et al. 1992)
T2 sequence (P14416 1-414 isoform P14416-2): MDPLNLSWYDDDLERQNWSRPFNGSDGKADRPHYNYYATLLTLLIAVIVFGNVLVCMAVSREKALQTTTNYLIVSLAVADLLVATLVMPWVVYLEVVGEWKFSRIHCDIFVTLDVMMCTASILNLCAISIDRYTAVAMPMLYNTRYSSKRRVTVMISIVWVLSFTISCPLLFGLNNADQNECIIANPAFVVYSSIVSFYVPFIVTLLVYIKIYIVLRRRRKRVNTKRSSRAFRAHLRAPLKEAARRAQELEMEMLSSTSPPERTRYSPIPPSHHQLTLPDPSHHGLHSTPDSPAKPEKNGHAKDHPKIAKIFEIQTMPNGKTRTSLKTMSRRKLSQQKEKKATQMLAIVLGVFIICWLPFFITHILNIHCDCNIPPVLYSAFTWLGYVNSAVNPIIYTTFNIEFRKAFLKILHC
Method: as §1, §2
CHO-D2S cells, expressing the recombinant human D2(short) dopamine receptor gene, (Hayes, G. et al., J. Mol. Endocrinol. 1992, 6, 920-926) were grown in Dulbecco's modified Eagle's medium/nutrient mixture F12 1:1 mixture supplemented with 2 mM glutamine, 10% fetal bovine serum, and 10 μl·ml^−1 penicillin/streptomycin in an atmosphere of 5% CO2 at 37° C. (Gibco™, Karlsruhe, Germany).
as §3, §4

CCCN(CCCCN1CCN(c2cccc(Cl)c2Cl)CC1)C1CCc2ncsc2C1 (stereo not drawn) [Compound 37, {4-[4-(2,3-Dichloro-phenyl)-piperazin-1-yl]-butyl}-propyl-(4,5,6,7-tetrahydro-benzothiazol-6-yl)-amine]
Ki [1]: 7.6 ± 1.6 nM | Selectivity Ki(D2)/Ki(D3) [1]: 7 | Ki [2]: 79.4 ± 49.7 nM

O=C(NCCCCNC1CCc2ncsc2C1)c1cc2ccccc2s1 (stereo not drawn) [Compound 10, Benzo[b]thiophene-2-carboxylic acid [4-(4,5,6,7-tetrahydro-benzothiazol-6-ylamino)-butyl]-amide]
Ki [1]: 292 ± 41 nM | Selectivity Ki(D2)/Ki(D3) [1]: 80 | Ki [2]: 23400 ± 1220 nM

CCCN(CCCN1CCN(c2cccc(Cl)c2Cl)CC1)C1CCc2ncsc2C1 (stereo not drawn) [Compound 36, {3-[4-(2,3-Dichloro-phenyl)-piperazin-1-yl]-propyl}-propyl-(4,5,6,7-tetrahydro-benzothiazol-6-yl)-amine]
Ki [1]: 35 ± 22 nM | Selectivity Ki(D2)/Ki(D3) [1]: 4 | Ki [2]: 129 ± 36 nM

CCCN(CCCCNC(=O)C12CC3CC(CC(C3)C1)C2)C1CCc2ncsc2C1 (stereo not drawn) [Compound 65]
Ki [1]: 0.95 nM | Selectivity Ki(D2)/Ki(D3) [1]: 2879 | Ki [2]: 2740 ± 1080 nM

CC#CCN(CCCCNC(=O)c1ccc2ccccc2c1)C1CCc2ncsc2C1 (stereo not drawn) [Compound 8, Naphthalene-2-carboxylic acid {4-[but-2-ynyl-(4,5,6,7-tetrahydro-benzothiazol-6-yl)-amino]-butyl}-amide]
Ki [1]: 108 ± 40 nM | Selectivity Ki(D2)/Ki(D3) [1]: 77 | Ki [2]: 8370 ± 3820 nM

CCCN(CCCCNC(=O)N1CC=C(c2ccccc2)CC1)C1CCc2ncsc2C1 (stereo not drawn) [Compound 62, 4-Phenyl-3,6-dihydro-2H-pyridine-1-carboxylic acid {4-[propyl-(4,5,6,7-tetrahydrobenzothiazol-6-yl)amino]butyl}amide]
Ki [1]: 7.31 ± 2.86 nM | Selectivity Ki(D2)/Ki(D3) [1]: 667 | Ki [2]: 4880 ± 1890 nM

CCN(CCCCNC(=O)c1ccc2ccccc2c1)C1CCc2ncsc2C1 (stereo not drawn) [Compound 4, Naphthalene-2-carboxylic acid {4-[ethyl-(4,5,6,7-tetrahydro-benzothiazol-6-yl)-amino]-butyl}-amide]
Ki [1]: 2.7 ± 0.94 nM | Selectivity Ki(D2)/Ki(D3) [1]: 581 | Ki [2]: 1570 ± 303 nM

CCN(CCN1CCN(c2ccccc2OC)CC1)C1CCc2ncsc2C1 (stereo not drawn) [Compound 28]
Ki [1]: 13.5 ± 1.1 nM | Selectivity Ki(D2)/Ki(D3) [1]: 11 | Ki [2]: 148 ± 23 nM

CCCN(CCCCC(=O)N1CCN(c2ccccc2)CC1)C1CCc2ncsc2C1 (stereo not drawn) [Compound 66, 1-(4-Phenylpiperazin-1-yl)-5-(propyl-(4,5,6,7-tetrahydrobenzothiazol-6-yl)amino)pentan-1-one]
Ki [1]: 7.23 ± 1 nM | Selectivity Ki(D2)/Ki(D3) [1]: 572 | Ki [2]: 4130 ± 1560 nM

CCCN(CCCCNC(=O)C=Cc1ccccc1)C1CCc2ncsc2C1 (stereo not drawn) [Compound 16, N-{4-[Propyl-(4,5,6,7-tetrahydro-benzothiazol-6-yl)-amino]-butyl}-cinnamoylamide]
Ki [1]: 8.11 ± 1.23 nM | Selectivity Ki(D2)/Ki(D3) [1]: 495 | Ki [2]: 4010 ± 383 nM

CCCN(CCCCNC(=O)c1cnc(-c2ccc(Cl)cc2)s1)C1CCc2ncsc2C1 (stereo not drawn) [Compound 19, 2-(4-Chloro-phenyl)-thiazole-5-carboxylic acid {4-[propyl-(4,5,6,7-tetrahydro-benzothiazol-6-yl)-amino]-butyl}-amide]
Ki [1]: 83 ± 2 nM | Selectivity Ki(D2)/Ki(D3) [1]: 30 | Ki [2]: 2520 ± 144 nM

CCCN(CCCCNC(=O)c1ccccc1)C1CCc2ncsc2C1 (stereo not drawn) [Compound 1, N-{4-[Propyl-(4,5,6,7-tetrahydro-benzothiazol-6-yl)-amino]-butyl}-benzamide]
Ki [1]: 2.26 ± 0.79 nM | Selectivity Ki(D2)/Ki(D3) [1]: 746 | Ki [2]: 1680 ± 382 nM

CCCN(CCCCNC(=O)N1Cc2ccccc2C1)C1CCc2ncsc2C1 (stereo not drawn) [Compound 27, 1,3-Dihydro-isoindole-2-carboxylic acid {4-[propyl-(4,5,6,7-tetrahydro-benzothiazol-6-yl)-amino]-butyl}-amide]
Ki [1]: 2.25 ± 1.24 nM | Selectivity Ki(D2)/Ki(D3) [1]: 1422 | Ki [2]: 3190 ± 1470 nM

C=CCN(CCCCNC(=O)c1ccc2ccccc2c1)C1CCc2ncsc2C1 (stereo not drawn) [Compound 6, Naphthalene-2-carboxylic acid {4-[allyl-(4,5,6,7-tetrahydro-benzothiazol-6-yl)-amino]-butyl}-amide]
Ki [1]: 0.95 ± 0.2 nM | Selectivity Ki(D2)/Ki(D3) [1]: 486 | Ki [2]: 459 ± 83 nM

CCN(CCN1CCc2ccccc2C1)C1CCc2ncsc2C1 (stereo not drawn) [Compound 31, [2-(3,4-Dihydro-1H-isoquinolin-2-yl)-ethyl]-ethyl-(4,5,6,7-tetrahydro-benzothiazol-6-yl)-amine]
Ki [1]: 26.5 ± 4.4 nM | Selectivity Ki(D2)/Ki(D3) [1]: 35 | Ki [2]: 929 ± 103 nM

CCCN(CCCCNC(=O)c1cc2ccccc2s1)C1CCc2ncsc2C1 (stereo not drawn) [Compound 13, Benzo[b]thiophene-2-carboxylic acid {4-[propyl-(4,5,6,7-tetrahydro-benzothiazol-6-yl)-amino]-butyl}-amide]
Ki [1]: 16 ± 6 nM | Selectivity Ki(D2)/Ki(D3) [1]: 141 | Ki [2]: 2280 ± 105 nM

CCCN(CCCCNC(=O)N1CCCCC1)C1CCc2ncsc2C1 (stereo not drawn) [Compound 21, Piperidine-1-carboxylic acid {4-[propyl-(4,5,6,7-tetrahydro-benzothiazol-6-yl)-amino]-butyl}-amide]
Ki [1]: 6.46 ± 3.25 nM | Selectivity Ki(D2)/Ki(D3) [1]: 1152 | Ki [2]: 7440 ± 2290 nM

CCCN(CCCCNC(=O)C1Cc2ccccc2C1)C1CCc2ncsc2C1 (stereo not drawn) [Compound 26, Indane-2-carboxylic acid-{4-[propyl-(4,5,6,7-tetrahydrobenzothiazol-6-yl)amino]butyl}amide]
Ki [1]: 1.52 ± 0.55 nM | Selectivity Ki(D2)/Ki(D3) [1]: 1189 | Ki [2]: 1810 ± 376 nM

CCCN(CCCCNC(=O)C1CCCCC1)C1CCc2ncsc2C1 (stereo not drawn) [Compound 20, Cyclohexanecarboxylic acid {4-[propyl-(4,5,6,7-tetrahydro-benzothiazol-6-yl)-amino]-butyl}-amide]
Ki [1]: 2.62 ± 0.16 nM | Selectivity Ki(D2)/Ki(D3) [1]: 582 | Ki [2]: 1530 ± 297 nM

O=C(NCCCCNC1CCc2ncsc2C1)c1nc2ccccc2s1 (stereo not drawn) [Compound 63, N-(4-(4,5,6,7-Tetrahydrobenzo[d]thiazol-6-ylamino)butyl)benzo[d]thiazole-2-carboxamide]
Ki [1]: 1900 ± 510 nM | Selectivity Ki(D2)/Ki(D3) [1]: 13 | Ki [2]: 24500 ± 7580 nM

CN(CCCCNC(=O)c1cc2ccccc2s1)C1CCc2ncsc2C1 (stereo not drawn) [Compound 11, Benzo[b]thiophene-2-carboxylic acid {4-[methyl-(4,5,6,7-tetrahydro-benzothiazol-6-yl)-amino]-butyl}-amide]
Ki [1]: 52.6 ± 5.1 nM | Selectivity Ki(D2)/Ki(D3) [1]: 65 | Ki [2]: 3390 ± 388 nM

CCN(CCCN1CCN(c2ccccc2OC)CC1)C1CCc2ncsc2C1 (stereo not drawn) [Compound 29, Ethyl-{3-[4-(2-methoxy-phenyl)-piperazin-1-yl]-propyl}-(4,5,6,7-tetrahydro-benzothiazol-6-yl)-amine]
Ki [1]: 89 ± 1.7 nM | Selectivity Ki(D2)/Ki(D3) [1]: 2 | Ki [2]: 140 ± 122 nM

CCCN(CCCCNC(=O)NC1CCCCC1)C1CCc2ncsc2C1 (stereo not drawn) [Compound 22, 1-Cyclohexyl-3-{4-[propyl-(4,5,6,7-tetrahydro-benzothiazol-6-yl)-amino]-butyl}-urea]
Ki [1]: 2.97 ± 1.23 nM | Selectivity Ki(D2)/Ki(D3) [1]: 1642 | Ki [2]: 4870 ± 1050 nM

CCN(CCNC(=O)c1ccc2ccccc2c1)C1CCc2ncsc2C1 (stereo not drawn) [Compound 32, Naphthalene-2-carboxylic acid {2-[ethyl-(4,5,6,7-tetrahydro-benzothiazol-6-yl)-amino]-ethyl}-amide]
Ki [1]: 67.8 ± 21.4 nM | Selectivity Ki(D2)/Ki(D3) [1]: 38 | Ki [2]: 2550 ± 302 nM
